Experimental data: article PMC7502707, “Characterization and validation of a preventative therapy for hypertrophic cardiomyopathy in a murine model of the disease” (Proceedings of the National Academy of Sciences of the …, 2020)

Test system: cTnI-G203S cardiac myocytes
Experiment: Calcium transients in Fura-2 loaded myocytes
Assay type: cell-based, mouse
Details: in vitro 1 μM peptide
Procedure: The whole-cell configuration of the patch-clamp technique was used to measure changes in ICa-L currents ([13]), and stimulate calcium transients in intact ventricular myocytes. Detailed methods are provided in SI Appendix.
Supporting Materials and Methods
Isolation of ventricular myocytes
Myocytes were isolated from wt and cTnI-G203S mice. Animals were anesthetized with pentobarbitone sodium (240 mg/kg) via intraperitoneal injection prior to excision of the heart. Cells were isolated as previously described (1-3). Mouse hearts were excised, cannulated onto a Langendorff apparatus via the aorta, and perfused with Krebs-Henseleit Buffer (KHB) containing […]
O2/CO2 at 37°C) for 4 min at 37°C. […]
The whole-cell configuration of the patch-clamp technique was used to measure changes in ICa-L currents (4), and stimulate calcium transients in intact ventricular myocytes. […] Currents were measured in extracellular modified Tyrode’s solution containing (in mM): NaCl 140, CsCl 5.4, CaCl2 2.5, MgCl2 0.5, HEPES 5.5 and glucose 11 (pH adjusted to 7.6 with NaOH). Macroscopic currents were recorded using an Axopatch 200B voltage-clamp amplifier (Molecular Devices) with a Digidata 1440A interface and pClamp10.5 software (Molecular Devices). […] The time course of changes in Ca2+ conductance were monitored by applying a 100 ms test pulse to 10 mV once every 10 seconds. […]

## QQLEEDLKGYLDWITQAE [AID-TAT]
  cellular calcium handling (calcium transients, Fura-2): no significant alteration
